Reference: US8389728B2, “Pollen tube stimulants from Arabidopsis pistils” (The Arizona Board of Regents, priority 2009, dated 2013)

Assays:
[1] = system: pollen from the Arabidopsis Columbia strain; assay: Time course of pollen germination and tube growth, Columbia strain; format: cell-based, Arabidopsis thaliana
Experimental: (§1) Using the optimal concentration of compound for pollen tube stimulation (0.02 mg compound dispensed into 50 μL of pollen growth medium) pollen tube growth were time lapse imaged for a duration of greater than 12 hours. […] For example, Landsberg pollen grew about 130 μm longer in the presence of compound A compared to compound B (FIG. 11B).

Arabidopsis pollen = assay: Time lapse imaging of pollen germination and pollen tube growth; format: cell-based, Arabidopsis thaliana; settings: for initiation of germination compared to no compound controls: 0.02 mg compound in 50 μL PGM, time lapse > 12 hours; for rate of pollen germination (in words): 0.02 mg compound in 50 μL of pollen growth medium
Experimental: as §1

[2] = Han et al. 2007; cited from earlier work
[3] = system: pollen from the Landsberg strain; assay: Time course of pollen germination and tube growth, Landsberg strain; format: cell-based, Arabidopsis thaliana; settings: 0.02 mg compound
Experimental: as §1

[4] = system: Arabidopsis thaliana, ecotype Columbia; assay: Stimulation of pollen germination and pollen tube growth in vivo (seed yield); settings: sprayed onto plants after blossoms open
Description: The stimulation of pollen germination in vivo may be achieved by applying an effective amount of one or both Compound A or Compound B, or functional derivative thereof, to a plant, such as Arabidopsis thaliana, ecotype Columbia, or another plant that is sufficiently evolutionarily related to Arabidopsis, such as a member of family Brassicaceae. The pollen growth stimulant can be applied in any formulation such as described herein and by any method of applying a compound to the flower of a plant. For example, an effective amount of Compound A can be sprayed onto any given number of plants in an area after blossoms open and pistils are exposed.

| Compound | extent of pollen growth, compound A versus B (in words) [1] | initiation of germination compared to no compound controls (Arabidopsis pollen) | rate of pollen germination (in words) (Arabidopsis pollen) | solubility in ethyl acetate [2] | additional pollen tube length in the presence of compound A compared to compound B [3] | seed yield of plants exposed versus not exposed [4] |
| --- | --- | --- | --- | --- | --- | --- |
| C[S+]([O-])N1CCC2CCCCC2C1 (stereo not drawn) [Compound B, 2-Methylsulfinyldecahydroisoquinoline] | grew to a similar extent | approximately two hours earlier | enhanced the rate of pollen germination | – | – | – |
| O=c1c(O)c(-c2ccc(O)cc2)oc2cc(O)cc(O)c12 [kaempferol] | – | – | – | highly soluble in ethyl acetate | – | – |
| C[S+]([O-])N1CCCC2CCCCC21 (stereo not drawn) [Compound A, 1-Methylsulfinyldecahydroquinoline] | grew to a similar extent | approximately two hours earlier | enhanced the rate of pollen germination | – | about 130 μm | increased seed yield |
